How the values were obtained:
[1] = tested on: CYP isozymes including 3A4, 2C19, 1A2, 2D6, and 2C9; assay: Cytochrome P450 phenotyping using chemical inhibitors; type: in vitro ADME; conditions: early preclinical studies
From the text: (§1) Therefore, a cytochrome P450 monooxygenase inhibitor in an amount effective to inhibit metabolism of the protease inhibitor could increase the bioavailability of Compound 2 compared to administration in the absence of the CYP inhibitor.

[2] = molecular target: CYP3A4 (Homo sapiens, UniProt P08684); assay: Metabolism by recombinant CYPs; type: in vitro ADME
From the text: as §1

[3] = tested on: HCV replication; conditions: general statement; cited from earlier work

Sequence of CYP3A4 (P08684 whole entry): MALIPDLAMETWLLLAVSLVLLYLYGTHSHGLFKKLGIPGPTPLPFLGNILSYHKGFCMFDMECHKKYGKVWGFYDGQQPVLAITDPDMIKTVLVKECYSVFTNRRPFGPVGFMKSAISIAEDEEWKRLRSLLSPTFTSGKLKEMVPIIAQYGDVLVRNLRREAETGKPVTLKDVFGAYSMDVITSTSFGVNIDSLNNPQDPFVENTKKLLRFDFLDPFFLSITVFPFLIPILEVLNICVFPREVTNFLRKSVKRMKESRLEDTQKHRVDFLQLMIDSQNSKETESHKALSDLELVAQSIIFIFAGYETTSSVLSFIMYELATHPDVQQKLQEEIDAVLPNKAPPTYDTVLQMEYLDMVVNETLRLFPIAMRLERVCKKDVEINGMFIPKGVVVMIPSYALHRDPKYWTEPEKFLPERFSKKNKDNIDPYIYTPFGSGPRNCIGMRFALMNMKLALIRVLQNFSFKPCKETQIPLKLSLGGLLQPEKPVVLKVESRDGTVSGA

Structure (SMILES): CC(C)(C)OC(=O)N[C@H]1CCCCC/C=C\[C@@H]2C[C@@]2(C(=O)NS(=O)(=O)C2CC2)NC(=O)[C@@H]2C[C@@H](OC(=O)N3Cc4cccc(F)c4C3)CN2C1=O [Compound 2, (1S,4R,6S,14S,18R)-4-Fluoro-1,3-dihydro-isoindole-2-carboxylic acid 14-tert-butoxycarbonylamino-4-cyclopropanesulfonylaminocarbonyl-2,15-dioxo-3,16-diaza-tricyclo[14.3.0.04,6]nonadec-7-en-18-yl ester]
- CYP isozymes participating in metabolism [1]: multiple CYP isozymes including 3A4, 2C19, 1A2, 2D6, and 2C9 participate in the metabolism
- Metabolism by recombinant CYPs [2]: only CYP3A4 metabolized Compound 2 to an extent that could influence the pharmacokinetics
- Inhibition of HCV replication [3]: effective in inhibiting HCV replication

Structure (SMILES): CS(=O)(=O)Nc1ccc2c(c1)S(=O)(=O)N=C(C1=C(O)C3C([C@@H]4CC[C@H]3C4)N(Cc3ccc(F)cc3)C1=O)N2 (stereo partly shown) [Compound 3]
- Inhibition of HCV replication [3]: effective in inhibiting HCV replication
